Measurements taken from US20120034210A1, “COMPOSITIONS FOR POTENTIATING APOPOSIS SIGNALS IN TUMOUR CELLS” (INSTITUT BERGONIE, priority 2008, published 2012).
Entries after “also recorded” stand apart in the source; their conditions may differ.

System: DISC macro-complex (Fas/FADD/Caspase-8)
Assay: DISC formation: Fas immunoprecipitation and Western blot
Type: cell-based, human
Details: vs untreated cells
Method: Cells were incubated with 1 μg/ml APO1-3 for 30 minutes at 4° C. After washing, cells were incubated for 15 minutes at 4° C. (0 minutes) or at 37° C. (15 minutes) and then lysed for 30 minutes at 4° C. in a lysis buffer (25 mM HEPES pH 7.4, 1% Triton X-100, 150 mM NaCl, 2 mM EDTA, a cocktail including protease inhibitors (Sigma)). The lysed cells were then centrifugated for 15 minutes at 15000 rpm in order to eliminate genomic DNA, and the supernatant was kept. The sepharose beads which were coupled with protein A were added to the lysate and the mixture was incubated for 2 hours. The beads were recovered, washed intensively and the immunoprecipitated proteins were re-suspended in a denaturing and reducing buffer (0.01M Tris-HCl pH6.8, 10% glycerol (v/v), 85 mM sodium dodecyl sulfate (SDS), 5% (v/v) […] and 0.005% (w/v) bromophenol blue) then heated at 100° C. for 5 minutes. The samples were deposited in an acrylamide/Bisacrylamide gel and separated by electrophoresis. The proteins were transferred from the gel into a nitrocellulose membrane using a semi-dry medium transfer technique for 2 hours at constant amperage (0.8 mA/cm^2). […] After transfer, the nitrocellulose membrane was saturated with proteins for 30 minutes with a TBST buffer (50 mM Tris pH=8, 0.15M sodium chloride, 0.05% (v/v) Tween-20) containing 5% (w/v) skimmed powdered milk (TBSTM). After washing with TBST, the membrane was incubated for 2 hours with the primary antibody in TBST. The membrane was washed intensively then incubated for one hour with TBST containing the secondary peroxidase-coupled antibody. […] This solution contained a substrate metabolised by peroxidase to yield a luminescent compound, which allowed marking a radiographic film (Amersham).

Structure (SMILES): CC(=O)OCOC(=O)CN(CC(=O)OCOC(C)=O)c1ccccc1OCCOc1ccccc1N(CC(=O)OCOC(C)=O)CC(=O)OCOC(C)=O [BAPTA-AM, 1,2-bis-(o-Aminophenoxy)ethane-N,N,N′,N′-tetraacetic tetra-(acetoxymethyl) acid Ester]
- DISC formation / FADD recruitment upon CD95 stimulation (H9, Jurkat, activated PBTs, non-cytotoxic concentrations): dramatically improved the DISC formation; also recorded: induction of DISC formation
- formation of the DISC macro-complex (H9 cells, BAPTA-AM 1-10 μM or ionomycine 1 μM pre-incubation, then anti-Fas APO1-3 1 μg/ml 15 min 37° C.): enhanced formation of the DISC macro-complex
